Experiments:
[1] = target: T1, human Oxytocin (hOT) receptor (Homo sapiens, UniProt P30559); test: In vitro competition binding assay on hOT receptor with scintillation proximity assay; details: inhibition of [125I]-OVTA binding, membranes from HEK293EBNA cells expressing hOT receptor; read-out: Binding Affinity hOT-R (Ki [nM])
T1 construct: expressed in transfected cells; host or cells: HEK293EBNA (membranes)
T1 sequence (P30559 1-389): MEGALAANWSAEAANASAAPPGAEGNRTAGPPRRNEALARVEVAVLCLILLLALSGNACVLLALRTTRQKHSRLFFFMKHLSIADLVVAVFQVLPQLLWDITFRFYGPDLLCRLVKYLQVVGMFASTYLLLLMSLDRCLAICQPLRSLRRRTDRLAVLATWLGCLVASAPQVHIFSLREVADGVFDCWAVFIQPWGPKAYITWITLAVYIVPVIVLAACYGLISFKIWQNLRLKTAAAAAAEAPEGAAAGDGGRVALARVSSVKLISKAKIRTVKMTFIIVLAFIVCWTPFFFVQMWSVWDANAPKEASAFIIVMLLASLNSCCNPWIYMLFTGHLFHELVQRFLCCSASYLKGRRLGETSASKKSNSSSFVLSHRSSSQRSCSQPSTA
Experimental: The compounds according to Formula I may be subjected to the following assays: • a) In vitro Competition Binding Assay on hOT Receptor with Scintillation Proximity Assay (11).
This assay allows to determine the affinity of the test compounds for the human Oxytocin (hOT) receptor. Membranes from HEK293EBNA (cells expressing the hOT receptor) were suspended in buffer containing 50 mM Tris-HCl, pH 7.4, 5 mM MgCl2 and 0.1% BSA (w/v). The membranes (2–4 μg) were mixed with 0.1 mg SPA bead coated with wheat-germ aglutinin (WGA-PVT-Polyethylene Imine beads from Amersham) and 0.2 nM of the radiolabelled [^125I]-OVTA (OVTA being Ornithin Vasoactive, an analogue of OT for competitive binding experiments). Non-specific binding was determined in the presence of 1 μM Oxytocin. The total assay volume was 100 μl. The plates (Corning® NBS plate) were incubated at room temperature for 30 min and counted on a Mibrobeta® plate scintillation counter. Competitive binding was performed in presence of compounds of formula (I) at the following concentrations: 30 μM, 10 μM, 1 μM, 300 nM, 100 nM, 10 nM, 1 nM, 100 pM, 10 pM. The competitive binding data were analysed using the iterative, nonlinear, curve-fitting program, “Prism” (GraphPad Software, Inc).
The ability of pyrrolidine derivatives of formula (I) to inhibit the binding of ^125-OVTA to the OT-receptor was assessed using the above described in vitro biological assay. Representative values for some example compounds are given in Table I where the binding affinity of test compounds from the above examples is expressed by the inhibition constant (Ki; nM). From these values, it can be derived that said test compounds according to formula I do show a significant binding to the oxytocin receptor.

[2] = target: T2, hOT receptor (HEK293EBNA cells expressing the hOT receptor) (Homo sapiens, UniProt P30559); test: Functional assay No. 1: inhibition of oxytocin mediated Ca2+-mobilization by FLIPR; type: cell-based; details: OT 40 nM, fluo-4, read-out: Inhibition of Ca2+ mobilisation, hOT-R IC50
T2 construct: expressed in transfected cells; host or cells: HEK293EBNA
T2 sequence (P30559 1-389): T1 sequence (P30559 1-389)
Experimental: This assay allows the measurement of the inhibition of OT/OT-R mediated calcium mobilization by test compounds of formula (I).
Preparing the plates: FLIPR-plates were pre-coated with PLL (Poly-L-Lysine) 10 μg/ml+0.1% gelatine to attach HEK293EBNA cells (Human Embryonic Kidney cells expressing the hOT receptor) and incubated for 30 min up to 2 days at 37° C. The cells were plated out into 96-well-plates (60000 cells/well).
Labelling with fluo-4: 50 μg of fluo-4 (Ca2+ sensitive fluorescent dye) were dissolved in 20 μl pluronic acid (20% in DMSO). The dissolved fluo-4 was then diluted in 10 ml DMEM (Dubecco's Minimal Essential Medium)-F12 culture medium. The plates were washed one time with DMEM-F12 medium. […] Fluo-4 is taken up by the cytoplasm of the cells. […]
The relative fluorescence of Fluo-4 (λex=488 nm, λem=590 nm) is then measured by the FLIPR in presence or absence of compounds of formula (I). The fluorescence of the marker being sensitive to the amount of Ca^2+, the Ca^2+ movements can be detected. Then, it can be determined the ability of compounds of formula (I) to antagonize the oxytocin-induced intracellular Ca^2+-mobilization mediated by the oxytocin receptor.
The activities of the pyrrolidine derivatives according to formula I were assessed using the above described in vitro biological assay. […]

[3] = tested on: oxytocin-induced uterine contractions in the rat; test: In vivo model for inhibition of uterine contractions; details: 40 min after test compound administration
Experimental: The ability of compounds of formula (I) to effectively antagonize oxytocin-induced IP3-synthesis mediated by the oxytocin receptor, can be assessed using the above described in vitro biological assay. • d) In vivo Model for Inhibition of Uterine Contractions
The assay evaluates the biological effect of tested compounds in an in vivo model of preterm labor, premature birth.
Non-pregnant Charles River CD (SD) BR female rats (9–10 weeks old, 200–250 g) were treated at 18 and 24 hours before the experiment with 250 μg/kg, i.p. diethylstilbestrol (DES). For the assay, the animal was anaesthetised with urethane (1.75 g/kg, i.p.) and placed on a homeothermic operating table. The trachea was isolated and cannulated with a suitable polyethylene (PE) tubing. […]
The contractile response of the uterus to oxytocin was quantified by measuring the intra-uterine pressure and the number of contractions. The effect of the reference and test compounds was evaluated by comparing pre- and post-treatment pressure values. In addition, contractions of the uterine were measured at 5, 40, 75, 110, 145 and 180 minutes after test compound administration.
The activities of the pyrrolidine derivatives claimed in the Formula I can be assessed using the above described in vivo biological assay. […]

SMILES | Ki [1] | IC50 [2] | % Reduction of Uterine Contraction ([3]; 10 mg/kg per i.v.) | % Reduction of Uterine Contraction ([3]; 30 mg/kg per os)
CON=C1C[C@@H](COCC(=O)NCCN2CCCC2)N(C(=O)c2ccc(-c3ccccc3)cc2)C1 [Compound 7, 2-{[(2S,4EZ)-1-(1,1′-biphenyl-4-ylcarbonyl)-4-(methoxyimino)pyrrolidin-2-yl]methoxy}-N-(2-pyrrolidin-1-ylethyl)acetamide] | 140 nM | – | – | –
CO/N=C1/C[C@@H](CO)N(C(=O)c2ccc(-c3ccccc3)cc2)C1 [Compound 4, (3Z,5S)-1-(1,1′-biphenyl-4-ylcarbonyl)-5-(hydroxymethyl) pyrrolidin-3-one O-methyloxime] | 94.9 nM | 10 nM | – | –
CON=C1C[C@@H](CO)N(C(=O)c2ccc(-c3ccccc3)cc2)C1 [Compound 2, (3EZ,5S)-1-(1,1′-biphenyl-4-ylcarbonyl)-5 (hydroxymethyl) pyrrolidin-3-one O-methyloxime] | 139 nM | 90 nM | 39.8 ± 10.0% | 50.9 ± 8.6%
COC[C@@H]1CC(=NOC)CN1C(=O)c1ccc(-c2ccccc2)cc1 [Compound 8, (3EZ,5S)-1-(1,1′-biphenyl-4-ylcarbonyl)-5-(methoxymethyl)pyrrolidin-3-one O-methyloxime] | 55 nM | – | – | –

More lines, main results first:

Ki [1] | IC50 [2] | SMILES | % Reduction of Uterine Contraction ([3]; 10 mg/kg per i.v.) | % Reduction of Uterine Contraction ([3]; 30 mg/kg per os)
120 nM | – | CON=C1C[C@@H](CCO)N(C(=O)c2ccc(-c3ccccc3)cc2)C1 [Compound 16, (3EZ,5S)-1-(1,1′-biphenyl-4-ylcarbonyl)-5-(2-hydroxyethyl)pyrrolidin-3-one O-methyloxime] | – | –
5.1 nM | – | CON=C1C[C@@H](CN2C(=O)c3ccccc3C2=O)N(C(=O)c2ccc(-c3ccccc3)cc2)C1 [Compound 12, 2-{[(2S,4EZ)-1-(1,1′-biphenyl-4-ylcarbonyl)-4-(methoxyimino)pyrrolidin-2-yl]methyl}-1H-isoindole-1,3(2H)-dione] | – | –
